Laboratory results as given in ChEMBL document CHEMBL5726364, “Uracil derivatives as AXL and c-MET kinase inhibitors” (2017).

biological target: T1, Tyrosine-protein kinase receptor UFO (Homo sapiens, UniProt P30530); assay: Kinase Assay: The ability of compounds to inhibit the kinase activity of recombinant human baculovirus-expressed AXL was measured by homogeneous TRF (HTRF) using Cisbio's KinEASE assay system in white 384-well Optiplates. Assay buffer contained 1 mM DTT, 2 mM MnCl2, 2% DMSO, 50 nM supplement enzymatic buffer, and 1× enzymatic buffer. A 2× concentration of tyrosine kinase (TK) substrate-biotin/ATP mixture made in assay buffer was added to plates at 10 μL/well using the Multidrop Combi (Thermo Fisher Scientific, Waltham, Mass.). […] Compounds (100 nL), diluted in 100% DMSO on the Biomek FX, (Beckman Coulter, Inc., Brea, Calif.), were transferred to the assay plates using the Biomek FX pintool (2.5% final DMSO in assay). A 2× concentration (final=12 ng/mL) of GST-AXL (diluted in assay buffer) was added to plates at 10 uL/well using the Multidrop Combi. Plates were sealed, briefly shaken and incubated at 25° C. for 30 minutes. […] Plates were sealed, briefly shaken and incubated at 25° C. for 1 hour.
T1 sequence (P30530 whole entry): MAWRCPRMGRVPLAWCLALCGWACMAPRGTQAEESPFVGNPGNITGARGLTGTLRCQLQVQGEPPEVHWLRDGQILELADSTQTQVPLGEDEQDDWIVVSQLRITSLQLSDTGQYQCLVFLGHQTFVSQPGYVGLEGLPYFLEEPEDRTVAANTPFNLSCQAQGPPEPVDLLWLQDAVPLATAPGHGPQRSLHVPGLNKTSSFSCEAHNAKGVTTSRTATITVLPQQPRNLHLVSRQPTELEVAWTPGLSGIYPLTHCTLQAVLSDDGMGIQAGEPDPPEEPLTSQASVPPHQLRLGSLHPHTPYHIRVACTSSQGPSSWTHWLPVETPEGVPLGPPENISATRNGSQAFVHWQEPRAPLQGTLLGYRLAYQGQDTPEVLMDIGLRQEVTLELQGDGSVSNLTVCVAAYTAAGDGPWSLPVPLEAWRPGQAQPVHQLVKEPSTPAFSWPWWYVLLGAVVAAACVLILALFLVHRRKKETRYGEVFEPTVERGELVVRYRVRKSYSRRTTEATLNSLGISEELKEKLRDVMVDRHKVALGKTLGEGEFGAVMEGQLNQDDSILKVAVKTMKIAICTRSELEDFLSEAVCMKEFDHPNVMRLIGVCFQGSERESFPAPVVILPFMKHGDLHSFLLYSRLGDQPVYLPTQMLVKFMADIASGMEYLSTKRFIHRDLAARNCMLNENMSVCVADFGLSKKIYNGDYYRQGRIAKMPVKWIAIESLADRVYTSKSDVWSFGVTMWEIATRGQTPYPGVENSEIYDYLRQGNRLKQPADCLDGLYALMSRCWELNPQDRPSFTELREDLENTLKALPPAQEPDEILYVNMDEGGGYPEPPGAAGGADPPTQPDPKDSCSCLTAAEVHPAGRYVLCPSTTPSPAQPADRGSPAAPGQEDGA

IC50, < 10 nM:
C=CCn1cc(C(=O)Nc2ccc(Oc3ccnc4cc(OC)c(OC)cc34)c(F)c2)c(=O)n(CC=C)c1=O
CCn1nc(C(=O)Nc2ccc(Oc3ccnc4cc(OC)c(OC)cc34)cn2)c(=O)n(-c2ccc(F)cc2)c1=O
CCn1cc(C(=O)Nc2ccc(Oc3ccnc4cc(OC)c(OC)cc34)c(Cl)c2)c(=O)n(-c2ccc(F)cc2)c1=O
